Key:
Format in all cases: biochemical
[1] = molecular target: T1, mouse TAPL ΔTMD0 (Mus musculus, UniProt Q9JJ59); experiment: Lipid-stimulated ATPase assay, DM-purified ΔTMD0; settings: lipid stimulation, 3 mM ATP
T1 construct: thrombin cleavage site (C); eGFP (C); 10XHis (C); made in house; host or cells: Trichoplusia ni High Five (Hi5) insect cells, baculovirus (pVL1393)
T1 sequence (Q9JJ59 143-762): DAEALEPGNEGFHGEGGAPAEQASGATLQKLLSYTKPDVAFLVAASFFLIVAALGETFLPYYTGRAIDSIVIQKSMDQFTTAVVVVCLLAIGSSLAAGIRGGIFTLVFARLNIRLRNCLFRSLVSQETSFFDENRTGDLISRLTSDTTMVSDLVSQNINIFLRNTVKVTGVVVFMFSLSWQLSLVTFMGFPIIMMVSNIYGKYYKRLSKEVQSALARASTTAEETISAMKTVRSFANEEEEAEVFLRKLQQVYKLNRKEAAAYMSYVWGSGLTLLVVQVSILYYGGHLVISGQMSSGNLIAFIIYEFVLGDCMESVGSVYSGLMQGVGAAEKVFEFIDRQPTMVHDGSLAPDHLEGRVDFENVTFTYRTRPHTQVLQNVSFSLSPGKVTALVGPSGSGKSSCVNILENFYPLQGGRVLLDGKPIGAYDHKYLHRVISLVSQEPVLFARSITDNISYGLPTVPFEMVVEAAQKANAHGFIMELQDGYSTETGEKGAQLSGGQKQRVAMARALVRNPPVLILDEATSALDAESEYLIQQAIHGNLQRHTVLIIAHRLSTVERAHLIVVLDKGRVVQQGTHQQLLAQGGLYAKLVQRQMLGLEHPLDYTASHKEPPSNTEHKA
Experimental: (§1) The ATPase activities of proteins obtained after various purification procedures were determined by NADH-coupled spectrophotometric assays. 10 μg of DM-purified or nanodisc-reconstituted protein was added to 140 μL of reaction buffer containing 50 mM HEPES–KOH pH 8.0, 60 μg/mL pyruvate kinase (Roche), 16 μg/mL lactate dehydrogenase (Roche), 10 mM phosphoenolpyruvate (Roche), 0.3 mM NADH, 3 mM ATP, 10 mM MgCl2, and 0.17% (w/v) DM in the presence or absence of 250 μM peptide. For proteins reconstituted into nanodiscs, DM was not added to the reaction buffer. For lipid-stimulated ATPase assays, the thin film of lipids was hydrated in 100 μL of buffer containing 50 mM HEPES–KOH pH 8.0 and 10 mM MgCl2 to yield a 10 mM solution. After sonication of the lipid solution for 10 min to decrease its turbidity, the reaction was initiated by adding varying concentrations of lipids to the mixture. ATP hydrolysis activity was monitored at 37 °C for 3 min by measuring the rate of decline of NADH absorbance at 340 nm. To inhibit ATP hydrolysis, the reaction mixture was incubated with 3 mM AMP-PNP or 8 mM NaF/2 mM BeSO4 for 5 min at RT. The kinetic parameters of ATP hydrolysis were calculated by fitting the initial rates of ATP hydrolysis to the Michaelis–Menten equation using PRISM 4.0 (GraphPad software).

[2] = molecular target: T1, mouse TAPL ΔTMD0; experiment: NADH-coupled ATPase assay, DM-purified ΔTMD0; settings: for ATP hydrolysis in presence of ATP analogs: in the presence of 9-mer peptide
Experimental: as §1

[3] = molecular target: T1, mouse TAPL ΔTMD0; experiment: Dithionite-based flip-flop (floppase) assay of NBD*-labeled lipids, ΔTMD0 proteoliposomes; settings: NBD*-labeled lipid; PE, PG, PC and cholesterol data not shown
Experimental: All lipids used in reconstitution were purchased from Avanti Polar Lipids, Inc. (purity > 99%). The in vitro flip–flop assay was performed using NBD* dye-labeled proteoliposomes as described previously. Briefly, E. coli polar lipids and egg PC were mixed in a 1:1 molar ratio, and 0.5% (mol/mol) NBD*-lipid was added. The lipid mixture was then dried under nitrogen gas. The NBD*-lipids used were 18:1-06:0 NBD*-PS (1-oleoyl-2-{6-[(7-nitro-2-1,3-benzoxadiazol-4-yl)amino]hexanoyl}-sn-glycero-3-phosphoserine), 18:1-06:0 NBD*-PC (1-oleoyl-2-{6-[(7-nitro-2-1,3-benzoxadiazol-4-yl)amino]hexanoyl}-sn-glycero-3-phosphocholine), 18:1-06:0 NBD*-PG (1-oleoyl-2-{6-[(7-nitro-2-1,3-benzoxadiazol-4-yl)amino]hexanoyl}-sn-glycero-3-[phospho-rac-(1-glycerol)]), 18:1-06:0 NBD*-PE (1-oleoyl-2-{6-[(7-nitro-2-1,3-benzoxadiazol-4-yl)amino]hexanoyl}-sn-glycero-3-phosphoethanolamine), and 25-NBD*-Cholesterol (25-[N-[(7-nitro-2-1,3-benzoxadiazol-4-yl)methyl]amino]−27-norcholesterol). Thin lipid films were solubilized in 20 mM HEPES–NaOH pH 8.0, 200 mM NaCl and 5% (v/v) glycerol, incubated at RT for 30 min and subjected to 5 freeze–thaw cycles. After extrusion with a Mini-Extruder at 65 °C, final lipid concentrations were determined by phosphorus assays. Briefly, 10 μL of extruded lipid was added to 10 μL of 2% (w/v) ammonium molybdate and 300 μL of concentrated perchloric acid. The mixture was heated at 250 °C for 30 min, then cooled to RT and mixed with 1.5 mL of 0.4% (w/v) ammonium molybdate and 250 μL of 9% (w/v) L-ascorbic acid. It was again heated at 100 °C for 6 min and cooled to RT. Lipid concentrations were calculated from the absorbance at 820 nm using a standard curve prepared with NaH2PO4 solution. After accurately determining the lipid concentration, DM-purified protein and 5 mM lipid suspension (solubilized in 5 mM DM) were mixed 1:25 (w/w). After incubation at 4 °C for 1.5 h, DM detergent was removed with 75 mg Bio-beads SM-2 by periodic gentle shaking for 1 h at 4 °C (Supplementary Fig. 5a). The beads were replaced once, followed by an additional incubation at 4 °C for 2 h to completely remove detergent. The resulting proteoliposomes were collected by ultracentrifugation at 200,000×g for 1.5 h at 4 °C.
To measure the flip–flop activity, 10 μL of 2 mM NBD*-labeled proteoliposomes were added to 100 μL of reaction buffer (20 mM HEPES–NaOH pH 8.0, 200 mM NaCl, 5 mM ATP and 5% (v/v) glycerol) in the presence of 2 mM MgCl2 (or NaCl), and incubated at 37 °C for 1 h. The mixture was transferred to a 96-well plate and time-dependent fluorescence (λex/λem = 460/538 nm) was recorded every 30 s for 26 min using a fluorescence spectrophotometer (Gemini XPS). After the baseline fluorescence had stabilized, 10 mM sodium dithionite was added to quench the fluorescence of NBD*-lipid present in the outer leaflets of the liposomes. The initial rapid drop and subsequent slow decline in fluorescence intensity were monitored. When a new steady state was established, 1% (v/v) Triton X-100 was added to completely disrupt the liposomes. The net percentage of NBD*-lipid translocated across the lipid bilayer was calculated from the following equation[72]: the percentage of protected NBD*-lipid in the inner leaflet = [(FD−F0)/(FT−F0)]×100, and that of accessible NBD*-lipid in the outer leaflet = [(FT−FD)/(FT−F0)]×100, where FT is the total fluorescence of the sample before the addition of dithionite, FD is the fluorescence of the sample after quenching with dithionite, and F0 is any residual fluorescence of the sample after solubilization with Triton X-100. Fluorescence values (FT, FD, F0) were calculated as the averages of 5 points on the respective plateau lines. The ΔTMD0-mediated lipid floppase activity was determined by subtracting the percentage of NBD*-lipid fluorescence measured in the presence of Na^+/ATP from that measured in the presence of Mg^2+/ATP.

[4] = molecular target: T1, mouse TAPL ΔTMD0; experiment: Peptide transport assay, ΔTMD0 proteoliposomes; settings: for reduction of peptide transport: 5-IAF-labeled peptide, ATP-dependent, relative to 9-mer; for Transport activity: peptide 10 mM (sic), + 3 mM ATP
Experimental: Proteoliposomes for peptide transport assays were prepared according to the protocol of Zhao et al., with some modifications. Briefly, E. coli polar lipid extract dissolved in chloroform was dried under a gentle stream of nitrogen. The thin film of lipids was placed under a desiccator overnight to completely remove residual chloroform and then hydrated in 1X PBS buffer pH 7.4 (137 mM NaCl, 2.7 mM KCl, 8 mM Na2HPO4, and 2 mM KH2PO4) with 10 mM MgCl2 and 5% (v/v) glycerol. After water bath sonication at 22 °C for 5 min (Powersonic 610, KLEENTEK), the lipid solution was extruded using a Mini-Extruder equipped with a polycarbonate membrane filter (200 nm pore) (Avanti Polar Lipids, Inc.) to obtain unilamellar vesicles, which were destabilized with 0.36% (w/v) DM. The DM-purified protein and lipid suspension were mixed in a 1:50 (w/w) ratio. After incubation at 4 °C for 2 h, the mixture was treated with Bio-Beads SM-2 resin (60 and 120 mg, see above) at 4 °C for a total of 18 h to remove detergent. The proteoliposomes were collected by centrifugation at 200,000×g for 1.5 h at 4 °C and resuspended in the buffer described above.
The peptide transport activity of ΔTMD0 was measured as described previously. Briefly, 50 μL of ΔTMD0-loaded proteoliposomes (~0.6 μg protein) were added into 200 μL reaction buffer containing 1X PBS pH 7.4, 3 mM ATP, and 10 mM MgCl2 in the presence or absence of 10 μM 5-IAF-labeled peptides. To investigate transport activity, the mixture was incubated at 37 °C for 10 min. The reaction was terminated by incubating the mixture for 20 min on ice. Proteoliposomes were collected by centrifugation at 200,000×g for 30 min and then washed twice with 1X PBS. The proteoliposomes were completely disrupted by adding 10% (w/v) SDS solution (final concentration, 2%). The transported peptide was measured using a microplate reader (Gemini XPS) with excitation at 485 nm and emission at 520 nm.

[5] = 9-mer + ATP set at 100%, 37 °C 10 min, mean n=3

CCCCCCCC/C=C\CCCCCCCC(=O)O[C@H](COC(=O)CCCCCCCCCCCCCCC)COP(=O)(O)OCC(O)CO (mixture of isomers) [POPG, 1-palmitoyl-2-oleoyl-sn-glycero-3-phospho-(1’-rac-glycerol)]
maximal ATPase activity (turnover) [1]: 155 min⁻¹ | Km ([1]; means ± SEM): 105 ± 16 µM | maximal ATPase activity (Vmax) ([1]; means ± SEM): 1147 ± 41 nmol/mg/min

Nc1ncnc2c1ncn2[C@@H]1O[C@H](COP(=O)(O)OP(=O)(O)NP(=O)(O)O)[C@@H](O)[C@H]1O [AMP-PNP]
ATP hydrolysis in presence of ATP analogs [2]: prevented ATP hydrolysis

CCCCCCCC/C=C\CCCCCCCC(=O)OC[C@H](COP(=O)(O)OCCN)OC(=O)CCCCCNc1ccc([N+](=O)[O-])c2nonc12 [NBD*-PE, 1-oleoyl-2-{6-[(7-nitro-2-1,3-benzoxadiazol-4-yl)amino]hexanoyl}-sn-glycero-3-phosphoethanolamine]
ATP-dependent lipid transport by ΔTMD0 [3]: very low

Nc1ncnc2c1ncn2[C@@H]1O[C@H](COP(=O)(O)OP(=O)(O)OP(=O)(O)O)[C@@H](O)[C@H]1O [ATP]
Vmax ([2]; basal ATPase activity, DM-purified ΔTMD0): 394 ± 10 nmol/mg/min | Km ([2]; basal ATPase activity, DM-purified ΔTMD0, read-out: Km for ATP): 497 ± 61 µM

CCCCCCCC/C=C\CCCCCCCC(=O)OC[C@H](COP(=O)(O)OCC(O)CO)OC(=O)CCCCCNc1ccc([N+](=O)[O-])c2nonc12 (mixture of isomers) [NBD*-PG, 1-oleoyl-2-{6-[(7-nitro-2-1,3-benzoxadiazol-4-yl)amino]hexanoyl}-sn-glycero-3-[phospho-rac-(1-glycerol)]]
ATP-dependent lipid transport by ΔTMD0 [3]: very low

CCCCCCCC/C=C\CCCCCCCC(=O)OC[C@H](COP(=O)([O-])OCC[N+](C)(C)C)OC(=O)CCCCCNc1ccc([N+](=O)[O-])c2nonc12 [NBD*-PC, 1-oleoyl-2-{6-[(7-nitro-2-1,3-benzoxadiazol-4-yl)amino]hexanoyl}-sn-glycero-3-phosphocholine]
ATP-dependent lipid transport by ΔTMD0 [3]: very low

RRYQNSTELRRYQNSTELNSTC^5-IAFL [23-mer, 5-IAF-labeled 23-mer peptide]
reduction of peptide transport [4]: 80% | Transport activity [4, 5]: 20.2607% | Transport activity ([4]; replicate I): 20.4488% | Transport activity ([4]; replicate II): 15.9535% | Transport activity ([4]; replicate III): 24.3798%

ADP·BeF3
ATP hydrolysis in presence of ATP analogs [2]: prevented ATP hydrolysis

CC(CCC[C@@H](C)[C@@H]1CC[C@H]2[C@@H]3CC=C4C[C@@H](O)CC[C@]4(C)[C@H]3CC[C@@]21C)N(C)c1ccc([N+](=O)[O-])c2nonc12 (some centres unmarked) [NBD*-cholesterol, 25-[N-[(7-nitro-2-1,3-benzoxadiazol-4-yl)methyl]amino]−27-norcholesterol]
ATP-dependent lipid transport by ΔTMD0 [3]: failed to detect ΔTMD0-mediated translocation

RRYQNSTELRRYQNSTC^5-IAFL [18-mer, 5-IAF-labeled 18-mer peptide]
reduction of peptide transport [4]: 90% | Transport activity [4, 5]: 10.0006% | Transport activity ([4]; replicate I): 11.6836% | Transport activity ([4]; replicate II): 10.1438% | Transport activity ([4]; replicate III): 8.174%

CCCCCCCC/C=C\CCCCCCCC(=O)OC(COC(=O)CCCCCCCCCCCCCCC)COP(=O)([O-])OCC[N+](C)(C)C (centres unmarked) [POPC, 1-palmitoyl-2-oleoyl-glycero-3-phosphocholine]
maximal ATPase activity (turnover) [1]: 88 min⁻¹ | maximal ATPase activity (Vmax) ([1]; means ± SEM): 649 ± 35 nmol/mg/min

Source: publication PMC9532399, “The lysosomal transporter TAPL has a dual role as peptide translocator and phosphatidylserine floppase” (Nature Communications, 2022)
